Data reported in patent US20180346731A1, “Formation of Stable Pyranoanthocyanins, and Uses Thereof as Sources of Natural Color” (Ohio State Innovation Foundation, priority 2017, published 2018).

Assay: Colorimetry (CIEL*c*h*, ΔE2000) of anthocyanin isolates treated with pyruvic acid, 31 days storage
Format: physicochemical
Conditions: day 0 vs day 31, Delta E2000
Protocol: Prior to dilution, the concentrations of the isolated pigment extracts were determined by the pH differential method for subsequent dilution to known concentrations. The isolates were then diluted to 500 μM (expressed as Cyanidin-3-glucoside equivalents) in pH 2.5 deionized water (previously adjusted with HCl) which contained 0.1% potassium sorbate (w/v) and 0.1% sodium benzoate (w/v) to function as preservative agents during storage. A pH of 2.5 was selected as a compromise of several variables: the flavylium form was predominant, the effect of pKh was minimized, and it is a relevant pH for wines. It has been reported that the pKh's of cy3 gal, cy3xylgal, and cy3xylglugal ranges from 3.01 to 3.26. Working at pH 2.5 largely avoided the effect of different equilibrium forms while also maintaining a pH that is similar to that of wines where these compounds are commonly formed. Control samples of each isolate were prepared and contained no pyruvic acid. For treatments containing pyruvic acid, a previously diluted pyruvic acid standard (pyruvic acid in the same pH 2.5 water containing preservatives) was added to obtain concentrations 100× the molar ratio of anthocyanins (50 mM of pyruvic acid). All treatments were brought to the same final volume by the addition of more pH 2.5 water. Samples were filtered through a 0.2 μm membrane into 1.5 mL glass HPLC vials. Vials were capped and stored in an incubator in the dark at 25° C. for a 31 day duration (Fisher Scientific, Waltham, Mass., U.S.). All treatments were prepared in triplicate.
Colorimetric data of samples was calculated from spectra of samples collected from the plate reader with ColorBySpectra. Absorbance data was obtained and conversion to color values was achieved using the following settings: regular transmission, D65 illuminant, and 10° observer angle. Values reported are in the CIEL*c*h* scale. After storage for 31 days, the mathematical differences in color (ΔE) were calculated according to the CIE-L*a*b* Delta E2000 equation. Colorimetric data of the samples containing pyruvic acid was used to correlate with pyranoanthocyanins formation. Spectral absorbance data of the peaks of the anthocyanins and their respective pyranoanthocyanins were also collected from the PDA during uHPLC analyses and converted to colorimetric data using ColorBySpectra under the settings described above. The spectra was obtained from the time of elution of the target compound and then standardized to an absorbance of 1.0 at λvis-max.

OC[C@H]1O[C@@H](Oc2cc3c(O)cc(O)cc3[o+]c2-c2ccc(O)c(O)c2)[C@H](O)[C@@H](O)[C@H]1O [Cyanidin-3-galactoside, cyanidin-3-galactoside]
total color change (ΔE): 8.2
